# Source: patent US20210115000A1, “NILE RED DERIVATIVES FOR IMPROVED RATIOMETRIC IMAGING FOR NERVE SPECIFIC CONTRAST” (Oregon Health & Sciences University, priority 2018, published 2021)
# “Also recorded” adds a separate entry of the source.
# Columns and labels:
# [1] = tested on: U2OS human osteosarcoma cell line; experiment: Nile Red derivative cell staining and imaging, fixed and live cells; type: cell-based; conditions: 1 μM; for fluorescence intensity in fixed cells: U2OS fixed with 4% PFA, imaged without washing; for fluorescence intensity in fixed cells / fluorescence intensity in live cells without washing / structures observed in live cells without washing: 5 min; for fluorescence intensity in live cells without washing / structures observed in live cells without washing: U2OS live, imaged in staining solution
# Procedure: The U2OS human osteosarcoma cell line was cultured in Dulbecco's Modified Eagle Medium (DMEM, Thermo Fisher Scientific, Waltham, Mass.) with 10% fetal bovine serum (FBS, VWR, Radnor, Pa.) and 1% Penicillin/Steptomycin 100× (Thermo Fisher Scientific) at 37° C. in 5% CO2. For live cell imaging studies, Fluorobrite DMEM media (Thermo Fisher Scientific) was used in place of DMEM. For imaging studies, cells were grown in 96-well glass bottom plates (Cellvis, Mountain View, Calif.) for 48 hours, with a final confluence of <80%. Nile Red and its derivatives were prepared at 1-10 mM stock concentration in DMSO and diluted into media or buffer for cell staining and imaging studies.
# Cell staining studies were completed on fixed and live U2OS cells using Nile Red and each synthesized Nile Red derivative described as follows. For fixed cell staining, cells were washed once with 1× phosphate buffered saline (PBS), then fixed with 4% paraformaldehyde (PFA) for 20 minutes at room temperature. The PFA was removed and each well was washed three times for 5 mins per wash (3×5 mins) with 1×PBS. The Nile Red fluorophores were diluted into 1×PBS to a final concentration of 1 μM, incubated for 5 minutes with the cells, and images were collected without washing. Live cell staining was completed using two methods. First, cells were washed once with Fluorobrite DMEM. The Nile Red fluorophore solution was prepared in Fluorobrite DMEM by diluting to a final concentration of 1 μM for staining, where cells were stained for 5 minutes. The fluorophore containing media was removed and the cells were fixed for 20 minutes using 4% PFA. Cells were then washed 3×5 mins with Fluorobrite DMEM prior to imaging. Second, cells were washed with Fluorobrite DMEM without FBS once for 5 minutes. Nile Red fluorophore solutions were prepared in Fluorobrite without FBS at 1 μM final concentration for cell staining. The cells were stained with the prepared solution for 5 minutes and imaged in the staining solution. All images were collected at their ideal exposure times to permit visualization of stained intracellular structures.
# All ex vivo and cellular fluorescence and white light images were collected using a Zeiss AxioObserver inverted fluorescence microscope (Carl Zeiss, Oberkochen, Germany). All cell images were collected at 40× magnification and all tissue section images were collected at 10× magnification. Fluorescence excitation was completed using a Photofluor II broad band light source (89 North, Burlington, Vt.) filtered with a 545±12.5 nm bandpass excitation filter. Fluorescence images were collected using a 605±35 nm bandpass emission filter and a AxioCam 506 monochromo camera (Zeiss). All Filters were Purchased from Chroma Technologies (Bellows Falls, Vt.).
# [2] = tested on: nerve, adipose and muscle tissue at nerve sites; experiment: In vivo co-staining with Oxazine 4, ratiometric imaging and ROC curve analysis; set-up: species or system male CD-1 mice; conditions: for ROC AUC of nerve-to-muscle contrast, change: 30 min after staining compared to immediately following staining
# Text: In vivo images were acquired using a previously published, custom-built small animal fluorescence imaging system, described briefly here.^27 Fluorescent images were obtained using a Qimaging EXi Blue monochrome camera (Surrey, British Columbia, CA) with a removable Bayer mask for collection of co-registered color and fluorescence images. A Photofluor II broad band light source (89 North) was expanded onto the surgical field through a liquid light guide and used unfiltered for white light illumination. Nile Red and NR5 were excitated using a 545 t 12.5 nm bandpass filter, while fluorescence emission images were collected with a 605±35 nm bandpass filter. Oxazine 4 (Exciton, West Chester, Ohio) was used for nerve and adipose co-staining and ratiometic imaging studies. Oxazine 4 was excited using a 620±30 nm bandpass filter, while fluorescence emission images were collected through a 700±37.5 nm bandpass filter. Approval for the use of animals in the study was obtained from the Institutional Animal Care and Use Committee (IACUC) at Oregon Health and Science University (OHSU). In vivo staining studies were carried out on male CD-1 mice using an optimized direct/topical administration protocol.^2 Staining was performed concurrently on no more than two nerve sites (sciatic nerve or brachial plexus) per mouse. Nile Red and all Nile Red derivatives were formulated in a previously published co-solvent formulation (10% DMSO, 5% Kolliphor, 63.75% serum and 21.25% PBS^14) at a final concentration of 100 μM. Each formulated fluorophore was incubated for 5 minutes on the nerve site (n=4 nerve sites/fluorophore), followed by 9 short flushes with PBS. The nerve site was then incubated with blank co-solvent not containing fluorophore for 5 minutes, followed again by 9 short flushes with PBS. In vivo co-staining was completed with (1) Nile Red and Oxazine 4 as well as (2) NR5 and Oxazine 4. For these studies, co-solvent formulated Oxazine 4 ([…]) was incubated on the nerve site for 5 minutes followed by 9 short flushes with PBS. The co-solvent formulated Nile Red or NR5 (100 μM) was then incubated on the nerve site for 5 minutes and also followed by 9 short flushes with PBS. Co-registered (1) Nile Red and Oxazine 4 or (2) NR5 and Oxazine 4 images were collected from n=4 nerve sites per groups (1) and (2). Ratiometric images were calculated and quantified using region of interest analysis on the white light images to identify the nerve, adipose and muscle tissue types. Due to the known cross talk of Oxazine 4 into the Nile Red channel,^2 the Oxazine 4 image was subtracted from the Nile Red or NR5 image resulting in an image of only adipose. The ratiometric images were then calculated as the Oxazine 4 image minus the corrected Nile Red or NR5 image divided by the corrected Nile Red or NR5 image. Receiver Operator Characteristic (ROC) curve analysis was performed to assess differences between the ratiometric images, where the area under the curve (AUC) was used as the metric to differentiate between groups (1) and (2) using custom written MatLab code.^28
SMILES,fluorescence intensity in fixed cells [1],fluorescence intensity in live cells without washing [1],structures observed in live cells without washing [1],fluorescence intensity in both the fixed and live in vitro imaging studies ([1]; U2OS),"ROC AUC of nerve-to-muscle contrast, change [2]","z-score, nerve-to-muscle contrast ([2]; NR5 and oxazine 4 costaining versus oxazine 4 alone, 30 min after staining)","z-score, nerve-to-muscle contrast ([2]; NR5 costaining with oxazine 4 compared to Nile Red costaining with oxazine 4, 30 min after staining)","z-score, nerve-to-adipose contrast ([2]; NR versus NR5 costaining with oxazine 4, 30 min after staining)","z-score, nerve-to-adipose contrast ([2]; NR versus NR5 costaining with oxazine 4, first time point (immediately after staining implied))","z-score, nerve-to-muscle contrast ([2]; NR versus NR5 costaining with oxazine 4, immediately following staining)","ROC AUC nerve contrast ([2]; costaining with Oxazine 4, 30 minutes post direct administration)","ROC AUC nerve contrast ([2]; costaining with Oxazine 4, immediately following direct administration)","z-score, nerve-to-adipose contrast ([2]; oxazine 4 only staining versus NR5 costaining with oxazine 4, 30 min after staining)","z-score, nerve-to-adipose contrast ([2]; oxazine 4 only staining versus NR5 costaining with oxazine 4, first time point (immediately after staining implied))","z-score, nerve-to-muscle contrast ([2]; oxazine 4 only staining versus NR5 costaining with oxazine 4, immediately following staining)"
"CCN(CC)c1ccc2nc3c4ccc(-c5ccc(C#N)cc5)cc4c(=O)cc-3oc2c1 [NR5, 4-(9-(diethylamino)-5-oxo-5H-benzo[a]phenoxazin-3-yl)benzonitrile]",bright,brightest of the synthesized derivatives,Prominent lipid droplet like structures,brightest fluorescence intensity of the Nile Red derivatives,little change,-21.32,99.96,98.20,25.26,21.87,improved nerve to adipose and nerve to muscle contrast ratios; also recorded: significantly higher nerve-to-adipose contrast,slightly improved values,16.12,28.63,15.22
CCN(CC)c1ccc2nc3c4ccccc4c(=O)cc-3oc2c1 [Nile Red],bright,brightest overall,Prominent lipid droplet like structures,–,substantial drop in AUC value,–,–,–,–,–,–,–,–,–,–
